Laboratory results: PubChem BioAssay AID248 (DTP/NCI, 2004)
Values joined by “and” are separate entries in the source; they are usually repeats but may differ in a detail not shown here. Identical values can stand only once. Inconclusive results and toxic doses are left out. Cut-off read from the data, not from the text of the source: active = T/C of 150% or more; inactive = T/C below 125%.

System: L1210 leukemia ip in BDF1 mice, survival T/C
Assay: NCI In Vivo Anticancer Drug Screen. Data for tumor model L1210 Leukemia (intraperitoneal) in B6D2F1 (BDF1) mice
Conditions: endpoint: mean survival time, higher = longer survival
Outline: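 Value reflects the ratio of survival in compound-treated mice to survival in vehicle-treated controls, with both groups carrying the same transplanted tumor.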

[1] = dose: 100.0 mg/kg/injection, schedule: Q01DX001 (ip), vehicle: saline
[2] = dose: 200.0 mg/kg/injection, schedule: Q01DX001 (ip), vehicle: saline
[3] = dose: 400.0 mg/kg/injection, schedule: Q01DX001 (ip), vehicle: saline
[4] = dose: 100.0 mg/kg/injection, schedule: Q04DX002 (ip), vehicle: Klucel (hydroxypropylcellulose) (HPC)
[5] = dose: 200.0 mg/kg/injection, schedule: Q04DX002 (ip), vehicle: Klucel (hydroxypropylcellulose) (HPC)
[6] = dose: 400.0 mg/kg/injection, schedule: Q04DX002 (ip), vehicle: Klucel (hydroxypropylcellulose) (HPC)
[7] = dose: 100.0 mg/kg/injection, schedule: Q04DX003 (ip), vehicle: saline
[8] = dose: 200.0 mg/kg/injection, schedule: Q04DX003 (ip), vehicle: saline
[9] = dose: 400.0 mg/kg/injection, schedule: Q04DX003 (ip), vehicle: saline
[10] = dose: 100.0 mg/kg/injection, schedule: Q04DX003 (ip), vehicle: Klucel (hydroxypropylcellulose) (HPC)
[11] = dose: 200.0 mg/kg/injection, schedule: Q04DX003 (ip), vehicle: Klucel (hydroxypropylcellulose) (HPC)
[12] = dose: 100.0 mg/kg/injection, schedule: Q04DX003 (ip), vehicle: saline with Tween-80
[13] = dose: 200.0 mg/kg/injection, schedule: Q04DX003 (ip), vehicle: saline with Tween-80
[14] = dose: 50.0 mg/kg/injection, schedule: Q01DX009 (ip), vehicle: Klucel (hydroxypropylcellulose) (HPC)
[15] = dose: 100.0 mg/kg/injection, schedule: Q01DX009 (ip), vehicle: Klucel (hydroxypropylcellulose) (HPC)
[16] = dose: 200.0 mg/kg/injection, schedule: Q01DX009 (ip), vehicle: Klucel (hydroxypropylcellulose) (HPC)
[17] = dose: 400.0 mg/kg/injection, schedule: Q04DX003 (ip), vehicle: saline with Tween-80
[18] = dose: 400.0 mg/kg/injection, schedule: Q01DX009 (ip), vehicle: Klucel (hydroxypropylcellulose) (HPC)
[19] = dose: 400.0 mg/kg/injection, schedule: Q04DX003 (ip), vehicle: Klucel (hydroxypropylcellulose) (HPC)
[20] = dose: 100.0 mg/kg/injection, schedule: Q04DX002 (ip), vehicle: saline with Tween-80
[21] = dose: 200.0 mg/kg/injection, schedule: Q04DX002 (ip), vehicle: saline with Tween-80
[22] = dose: 400.0 mg/kg/injection, schedule: Q04DX002 (ip), vehicle: saline with Tween-80
[23] = dose: 25.0 mg/kg/injection, schedule: Q01DX009 (ip), vehicle: other
[24] = dose: 50.0 mg/kg/injection, schedule: Q01DX009 (ip), vehicle: other

Measured: T/C

CCOCCNc1ccc(S(=O)(=O)c2ccc(N)cc2)cc1N
inactive: [1] 95 % of control | [2] 90 % of control | [3] 97 % of control

CC(=O)c1ccc(CCCC2CCCC2)cc1
inactive: [4] 88 % of control | [5] 91 % of control | [6] 91 % of control

O=C(Cc1ccc(CC(=O)NO)cc1)NO
inactive: dose: 75.0 mg/kg/injection, schedule: Q01DX001 (ip), vehicle: saline 100 % of control | dose: 150.0 mg/kg/injection, schedule: Q01DX001 (ip), vehicle: saline 96 % of control

COC(=O)C1C2CCC(C2)C1C(=O)OC (centres undefined)
inactive: [4] 111 % of control | [5] 93 % of control | [6] 107 % of control

Cc1ccc(S(=O)(=O)OC2CCC(=O)CC2)cc1
inactive: dose: 75.0 mg/kg/injection, schedule: Q01DX001 (ip), vehicle: acetone 92 % of control | dose: 150.0 mg/kg/injection, schedule: Q01DX001 (ip), vehicle: acetone 97 % of control | dose: 300.0 mg/kg/injection, schedule: Q01DX001 (ip), vehicle: acetone 100 % of control

COc1cc(N)ccc1C(=O)O
inactive: [7] 94 % of control | [8] 96 % of control | [9] 97 % of control

CCOC(Nc1cc(Cl)ccc1Cl)C(=O)c1ccccc1 (centres undefined)
inactive: [1] 97 % of control | [2] 100 % of control | [3] 96 % of control

Cc1nc(N)[nH]c(=O)c1/C=C\C(=O)c1ccccc1
inactive: dose: 30.0 mg/kg/injection, schedule: Q01DX Z (ip), vehicle: carboxymethylcellulose (CMC) 96 % of control | dose: 60.0 mg/kg/injection, schedule: Q01DX Z (ip), vehicle: carboxymethylcellulose (CMC) 96 % of control | dose: 100.0 mg/kg/injection, schedule: Q01DX001 (ip), vehicle: carboxymethylcellulose (CMC) 95 % of control | dose: 120.0 mg/kg/injection, schedule: Q01DX Z (ip), vehicle: carboxymethylcellulose (CMC) 87 % of control | dose: 200.0 mg/kg/injection, schedule: Q01DX001 (ip), vehicle: carboxymethylcellulose (CMC) 89 % of control | dose: 240.0 mg/kg/injection, schedule: Q01DX Z (ip), vehicle: carboxymethylcellulose (CMC) 90 % of control | dose: 400.0 mg/kg/injection, schedule: Q01DX001 (ip), vehicle: carboxymethylcellulose (CMC) 93 % of control

CSC(c1ccccc1)=[N+]1CCOCC1
inactive: dose: 50.0 mg/kg/injection, schedule: Q01DX009 (ip), vehicle: saline sonified 100 % of control | dose: 100.0 mg/kg/injection, schedule: Q01DX009 (ip), vehicle: saline sonified 94 % of control | [10] 102 % of control | dose: 200.0 mg/kg/injection, schedule: Q01DX009 (ip), vehicle: saline sonified 100 % of control | [11] 98 % of control

COC(=O)c1ccccc1N=NNc1cccc(SC)c1
inactive: [12] 95 % of control | [13] 93 % of control

CCN(CC)C(=O)C1CN2CCc3cc(OC)c(OC)cc3C2CC1OC(C)=O (centres undefined)
inactive: dose: 6.25 mg/kg/injection, schedule: Q01DX009 (ip), vehicle: Klucel (hydroxypropylcellulose) (HPC) 94 % of control | dose: 12.5 mg/kg/injection, schedule: Q01DX009 (ip), vehicle: Klucel (hydroxypropylcellulose) (HPC) 97 % of control | dose: 25.0 mg/kg/injection, schedule: Q01DX001 (ip), vehicle: water 92 % of control | dose: 25.0 mg/kg/injection, schedule: Q01DX009 (ip), vehicle: Klucel (hydroxypropylcellulose) (HPC) 94 % of control | dose: 25.0 mg/kg/injection, schedule: Q04DX003 (ip), vehicle: Klucel (hydroxypropylcellulose) (HPC) 103 % of control | dose: 50.0 mg/kg/injection, schedule: Q01DX001 (ip), vehicle: water 111 % of control | [14] 103 % of control | dose: 50.0 mg/kg/injection, schedule: Q04DX003 (ip), vehicle: Klucel (hydroxypropylcellulose) (HPC) 100 % of control | dose: 100.0 mg/kg/injection, schedule: Q01DX001 (ip), vehicle: water 97 % of control | [15] 103 % of control | [10] 97 % of control | [16] 115 % of control

O=C(O)C1C2CC3OC(=O)C1C3C2 (centres undefined)
inactive: [1] 93 % of control | dose: 100.0 mg/kg/injection, schedule: Q01DX009 (ip), vehicle: saline 98 % of control | [12] 91 % of control | [7] 97 % of control and 98 % of control | [2] 94 % of control | dose: 200.0 mg/kg/injection, schedule: Q01DX009 (ip), vehicle: saline 87 % of control | [13] 94 % of control | [8] 95 % of control and 100 % of control | [3] 100 % of control | dose: 400.0 mg/kg/injection, schedule: Q01DX009 (ip), vehicle: saline 87 % of control | [17] 104 % of control | [9] 98 % of control and 115 % of control

COc1cc(OC)c(NC(=S)Nc2ccccc2C(F)(F)F)cc1Cl
inactive: [4] 106 % of control | [16] 88 % of control | [5] 92 % of control | [18] 95 % of control | [6] 95 % of control

CNC(=O)c1ccc(/C=C/c2c[nH]c3ccccc23)[n+](C)c1
inactive: [1] 97 % of control | [2] 95 % of control

O=C(CC(=O)c1ccccc1)Nc1cccc([N+](=O)[O-])c1
inactive: [12] 90 % of control | [13] 86 % of control | [17] 86 % of control

COC(OC)c1nc(N)nc(N)c1-c1ccccc1
inactive: dose: 100.0 mg/kg/injection, schedule: Q01DX008 (ip), vehicle: Klucel (hydroxypropylcellulose) (HPC) 108 % of control | [10] 103 % of control | [11] 95 % of control | [19] 94 % of control

CCOC(=O)C(C(=O)OCC)C(=O)c1cc(-c2ccc(Cl)c(Cl)c2)nc2c(Cl)cc(Cl)cc12
inactive: [14] 98 % of control | [15] 104 % of control | [10] 101 % of control | [11] 109 % of control

CC1(C)OC2OC(C(O)c3cn(-c4ccccc4)nn3)C(O)C2O1 (centres undefined)
inactive: [20] 97 % of control | [21] 93 % of control | [22] 110 % of control

CCCCCCCCCCCCNC(=O)Nc1cc(C)ccc1C
inactive: [15] 97 % of control | [10] 94 % of control | [16] 86 % of control | [11] 95 % of control | [18] 86 % of control | [19] 97 % of control

Cc1cc(C)cc(OCC2C(COC(=O)c3cccc(Cl)c3)c3ccccc3N2C)c1 (centres undefined)
inactive: [15] 89 % of control | [16] 94 % of control

O=C1CCCCC1C(=O)C(F)(F)F (centres undefined)
inactive: dose: 12.5 mg/kg/injection, schedule: Q01DX009 (ip), vehicle: other 104 % of control | dose: 12.5 mg/kg/injection, schedule: Q04DX003 (ip), vehicle: other 103 % of control | [23] 104 % of control | dose: 25.0 mg/kg/injection, schedule: Q04DX003 (ip), vehicle: other 93 % of control | [24] 98 % of control | dose: 50.0 mg/kg/injection, schedule: Q04DX003 (ip), vehicle: other 97 % of control | dose: 75.0 mg/kg/injection, schedule: Q01DX009 (ip), vehicle: other 97 % of control | dose: 115.0 mg/kg/injection, schedule: Q01DX009 (ip), vehicle: other 87 % of control | dose: 170.0 mg/kg/injection, schedule: Q01DX009 (ip), vehicle: other 89 % of control

CC(=N\O)/C(=N\O)C(=O)c1ccccc1
inactive: dose: 100.0 mg/kg/injection, schedule: Q01DX009 (ip), vehicle: saline with Tween-80 110 % of control | [12] 96 % of control | dose: 200.0 mg/kg/injection, schedule: Q01DX009 (ip), vehicle: saline with Tween-80 95 % of control | [13] 101 % of control | [17] 98 % of control

COc1cc(C=O)ccc1OC(=O)Nc1ccc(F)c([N+](=O)[O-])c1
inactive: [23] 97 % of control | [24] 92 % of control | dose: 100.0 mg/kg/injection, schedule: Q01DX009 (ip), vehicle: other 97 % of control and 98 % of control

COc1cccc(C[Si](C)C)c1
inactive: [12] 104 % of control | [13] 107 % of control

CCCCc1cn(S(=O)(=O)c2ccc(C)cc2)nn1
inactive: [20] 106 % of control | [21] 100 % of control | [22] 106 % of control
